In PubChem BioAssay AID256 (DTP/NCI, 2004):
Values joined by “and” are separate entries in the source; they are usually repeats but may differ in a detail not shown here. Equal entries are not always repeated. Toxic doses and inconclusive results are not listed.

System: CD2F1 mice, L1210 leukemia ip, survival T/C
Test: NCI In Vivo Anticancer Drug Screen. Data for tumor model L1210 Leukemia (intraperitoneal) in CD2F1 (CDF1) mice
Settings: higher = longer survival
How it was run: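 Implant tumor; dose compound or vehicle; measure endpoint in both groups; report treated divided by control.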

[1] = endpoint: mean survival time, dose: 100.0 mg/kg/injection, schedule: Q04DX003 (ip), vehicle: saline
[2] = endpoint: mean survival time, dose: 100.0 mg/kg/injection, schedule: Q04DX003 (ip), vehicle: saline with Tween-80
[3] = endpoint: mean survival time, dose: 200.0 mg/kg/injection, schedule: Q04DX003 (ip), vehicle: saline with Tween-80
[4] = endpoint: mean survival time, dose: 400.0 mg/kg/injection, schedule: Q04DX003 (ip), vehicle: saline with Tween-80
[5] = endpoint: mean survival time, dose: 200.0 mg/kg/injection, schedule: Q01DX001 (ip), vehicle: saline
[6] = endpoint: mean survival time, dose: 400.0 mg/kg/injection, schedule: Q01DX001 (ip), vehicle: saline
[7] = endpoint: mean survival time, dose: 100.0 mg/kg/injection, schedule: Q01DX009 (ip), vehicle: saline with Tween-80
[8] = endpoint: mean survival time, dose: 200.0 mg/kg/injection, schedule: Q01DX009 (ip), vehicle: saline with Tween-80
[9] = endpoint: mean survival time, dose: 400.0 mg/kg/injection, schedule: Q01DX009 (ip), vehicle: saline with Tween-80
[10] = endpoint: mean survival time, dose: 100.0 mg/kg/injection, schedule: Q01DX001 (ip), vehicle: saline

For `Oc1c(Cl)c(Cl)c(Cl)c(Cl)c1Cl` (tested in a mixture with another compound), the T/C (endpoint: mean survival time, dose: 25.0 mg/kg/injection, schedule: Q04DX003 (ip), vehicle: saline) was 96 % of control, the T/C (endpoint: mean survival time, dose: 50.0 mg/kg/injection, schedule: Q04DX003 (ip), vehicle: saline) was 103 % of control and the T/C [1] was 96 % of control.
With `COC(=O)NC1=C(N2CC2)C(=O)C(NC(=O)OC)=C(N2CC2)C1=O` the T/C (endpoint: mean survival time, dose: 0.75 mg/kg/injection, schedule: Q01DX009 (ip), vehicle: saline) was 154 % of control and the T/C (endpoint: mean survival time, dose: 1.5 mg/kg/injection, schedule: Q01DX009 (ip), vehicle: saline) was 175 % of control.
For `CCCCCCOc1ccc(/C=N\N=C\c2ccc(OCCCCCC)cc2)cc1`, the T/C [2] was 91 % of control, the T/C [3] was 89 % of control and the T/C [4] was 91 % of control.
For `OC(Cc1ccnc2ccccc12)C(Cl)(Cl)Cl` (stereo not drawn), the T/C [1] was 103 % of control, the T/C (endpoint: mean survival time, dose: 200.0 mg/kg/injection, schedule: Q04DX003 (ip), vehicle: saline) was 103 % of control and the T/C (endpoint: mean survival time, dose: 400.0 mg/kg/injection, schedule: Q04DX003 (ip), vehicle: saline) was 97 % of control.
`CN1CCc2cc(O)cc3c2C1Cc1ccc(O)c(O)c1-3` (stereo not drawn) was tested, and the T/C (endpoint: mean survival time, dose: 25.0 mg/kg/injection, schedule: Q04DX003 (ip), vehicle: DMSO) was 101 % of control, the T/C (endpoint: mean survival time, dose: 50.0 mg/kg/injection, schedule: Q04DX003 (ip), vehicle: DMSO) was 101 % of control and the T/C (endpoint: mean survival time, dose: 100.0 mg/kg/injection, schedule: Q04DX003 (ip), vehicle: DMSO) was 101 % of control. The T/C (endpoint: mean survival time, dose: 200.0 mg/kg/injection, schedule: Q04DX003 (ip), vehicle: DMSO) was 102 % of control, the T/C (endpoint: mean survival time, dose: 200.0 mg/kg/injection, schedule: Q04DX003 (ip), vehicle: water) was 105 % of control and the T/C (endpoint: mean survival time, dose: 400.0 mg/kg/injection, schedule: Q04DX003 (ip), vehicle: water) was 102 % of control. The T/C (endpoint: mean survival time, dose: 600.0 mg/kg/injection, schedule: Q04DX003 (ip), vehicle: water) was 102 % of control.
In the case of `OCC12COCN1COC2`, the T/C (endpoint: mean survival time, dose: 12.5 mg/kg/injection, schedule: Q01DX009 (ip), vehicle: saline) is reported as 98 % of control and 104 % of control, the T/C (endpoint: mean survival time, dose: 25.0 mg/kg/injection, schedule: Q01DX009 (ip), vehicle: saline) is reported as 94 % of control and 96 % of control and the T/C (endpoint: mean survival time, dose: 50.0 mg/kg/injection, schedule: Q01DX009 (ip), vehicle: saline) is reported as 101 % of control and 104 % of control. For the same compound, the T/C (endpoint: mean survival time, dose: 100.0 mg/kg/injection, schedule: Q01DX009 (ip), vehicle: saline) was 98 % of control and 101 % of control, the T/C (endpoint: mean survival time, dose: 200.0 mg/kg/injection, schedule: Q01DX009 (ip), vehicle: saline) was 96 % of control and 106 % of control and the T/C (endpoint: mean survival time, dose: 400.0 mg/kg/injection, schedule: Q01DX009 (ip), vehicle: saline) was 109 % of control and 112 % of control.
With `CCOC(=O)CCCCCCCCC(=O)Nc1ccc(-n2[nH]c(=O)cc2C)cc1` the T/C [2] was 92 % of control, the T/C [3] was 92 % of control and the T/C [4] was 87 % of control.
For `Cc1cc(C)cc(OC(=O)/C=C/C(=O)Oc2cc(C)cc(C)c2)c1`, the T/C [2] was 100 % of control, the T/C [3] was 95 % of control and the T/C [4] was 96 % of control.
`COc1cc2cc(c1Cl)N(C)C(=O)CC(OC(=O)C(C)N(C)C(=O)C(C)C)C1(C)OC1C(C)C1CC(O)(NC(=O)O1)C(OC)/C=C/C=C(C)C2` (stereo not drawn) was tested, and the T/C (endpoint: mean survival time, dose: 1.2 micrograms/kg/injection, schedule: Q01DX009 (ip), vehicle: saline + alcohol) was 109 % of control, the T/C (endpoint: mean survival time, dose: 2.5 micrograms/kg/injection, schedule: Q01DX009 (ip), vehicle: saline + alcohol) was 113 % of control and the T/C (endpoint: mean survival time, dose: 5.0 micrograms/kg/injection, schedule: Q01DX009 (ip), vehicle: saline + alcohol) was 116 % of control. For the same compound, the T/C (endpoint: mean survival time, dose: 10.0 micrograms/kg/injection, schedule: Q01DX009 (ip), vehicle: saline + alcohol) was 119 % of control.
`O=C(O)CC(O)(CC(=O)O)C(=O)O` was tested, and the T/C (endpoint: mean survival time, dose: 60.0 mg/kg/injection, schedule: Q01DX001 (ip), vehicle: saline) was 106 % of control, the T/C [5] was 96 % of control and the T/C [6] was 94 % of control. The T/C (endpoint: mean survival time, dose: 800.0 mg/kg/injection, schedule: Q01DX001 (ip), vehicle: saline) was 100 % of control.
For `O=C(Nc1cc([N+](=O)[O-])ccc1O)C(O)c1ccccc1` (stereo not drawn), the T/C (endpoint: mean survival time, dose: 12.5 mg/kg/injection, schedule: Q01DX009 (ip), vehicle: other) was 95 % of control, the T/C (endpoint: mean survival time, dose: 25.0 mg/kg/injection, schedule: Q01DX009 (ip), vehicle: other) was 89 % of control and the T/C (endpoint: mean survival time, dose: 50.0 mg/kg/injection, schedule: Q01DX009 (ip), vehicle: other) was 86 % of control. For the same compound, the T/C (endpoint: mean survival time, dose: 100.0 mg/kg/injection, schedule: Q01DX009 (ip), vehicle: other) was 91 % of control and the T/C (endpoint: mean survival time, dose: 200.0 mg/kg/injection, schedule: Q01DX009 (ip), vehicle: other) was 91 % of control.
In the case of `O=C1OC(C(Cl)(Cl)Cl)OC1C(Cl)(Cl)Cl` (stereo not drawn), the T/C (endpoint: mean survival time, dose: 100.0 mg/kg/injection, schedule: Q01DX001 (ip), vehicle: saline with Tween-80) is reported as 97 % of control.
`CCCCCCCCOC(=O)c1c(Cl)c(Cl)c(C(=O)OCCCCCCCC)c(Cl)c1Cl` was tested, and the T/C [7] was 98 % of control, the T/C [2] was 97 % of control and the T/C [8] was 102 % of control. For the same compound, the T/C [3] was 97 % of control, the T/C [9] was 96 % of control and the T/C [4] was 97 % of control.
In the case of `CCOc1ccc2c(c1)c(CC(=O)O)cn2C`, the T/C (endpoint: mean survival time, dose: 100.0 mg/kg/injection, schedule: Q01DX001 (ip), vehicle: other) is reported as 98 % of control, the T/C (endpoint: mean survival time, dose: 200.0 mg/kg/injection, schedule: Q01DX001 (ip), vehicle: other) is reported as 101 % of control and the T/C (endpoint: mean survival time, dose: 400.0 mg/kg/injection, schedule: Q01DX001 (ip), vehicle: other) is reported as 98 % of control.
For `CC(=O)Nc1nc(Br)c2ccccc2c1-c1ccc(N)cc1`, the T/C (endpoint: mean survival time, dose: 50.0 mg/kg/injection, schedule: Q04DX003 (ip), vehicle: other) was 97 % of control, the T/C (endpoint: mean survival time, dose: 100.0 mg/kg/injection, schedule: Q04DX003 (ip), vehicle: other) was 94 % of control and the T/C (endpoint: mean survival time, dose: 200.0 mg/kg/injection, schedule: Q04DX003 (ip), vehicle: other) was 94 % of control. The T/C (endpoint: mean survival time, dose: 400.0 mg/kg/injection, schedule: Q04DX003 (ip), vehicle: other) was 102 % of control.
With `CC1(CCOC2CCCCO2)NC(=O)NC1=O` (stereo not drawn) the T/C (endpoint: mean survival time, dose: 100.0 mg/kg/injection, schedule: Q01DX001 (ip), vehicle: saline sonified) was 102 % of control, the T/C [7] was 112 % of control and the T/C (endpoint: mean survival time, dose: 200.0 mg/kg/injection, schedule: Q01DX001 (ip), vehicle: saline sonified) was 100 % of control. For the same compound, the T/C [8] was 103 % of control, the T/C (endpoint: mean survival time, dose: 400.0 mg/kg/injection, schedule: Q01DX001 (ip), vehicle: saline sonified) was 100 % of control and the T/C [9] was 103 % of control.
With `Cn1c2ccccc2c2ccccc21` the T/C [2] was 100 % of control, the T/C [3] was 102 % of control and the T/C [4] was 97 % of control.
In the case of `CC(C)(O)/C=C/C(=O)[C@](C)(O)[C@H]1[C@H](O)C[C@@]2(C)[C@@H]3CC=C4[C@@H](C=C(O)C(=O)C4(C)C)[C@]3(C)C(=O)C[C@]12C`, the T/C (endpoint: median survival time, dose: 0.5 mg/kg/injection, schedule: Q01DX005 (ip), vehicle: water) is reported as 113 % of control and the T/C (endpoint: median survival time, dose: 1.0 mg/kg/injection, schedule: Q01DX005 (ip), vehicle: water) is reported as 110 % of control.
In the case of `CC1(C)CCC(C)(C)c2c1ccc(O)c2Sc1c(O)ccc2c1C(C)(C)CCC2(C)C`, the T/C [7] is reported as 97 % of control, the T/C [2] is reported as 95 % of control and the T/C [8] is reported as 89 % of control. The T/C [3] was 97 % of control, the T/C [9] was 95 % of control and the T/C [4] was 91 % of control.
For `Cc1ccc(P(=S)(c2ccc(C)c3ccccc23)c2ccc(C)c3ccccc23)c2ccccc12`, the T/C [10] was 91 % of control, the T/C [5] was 97 % of control and the T/C [6] was 91 % of control.
In the case of `Cc1c2ccccc2c(CSCCC(N)C(=O)O)c2ccc3ccccc3c12` (stereo not drawn), the T/C [2] is reported as 96 % of control and the T/C [3] is reported as 87 % of control.
`CCC(C(N)=O)C1=CCCCC1` (stereo not drawn) was tested, and the T/C [2] was 103 % of control, the T/C [3] was 104 % of control and the T/C [4] was 101 % of control.
In the case of `C[N+](C)(C)CC(O)c1ccccc1` (stereo not drawn), the T/C (endpoint: mean survival time, dose: 50.0 mg/kg/injection, schedule: Q01DX009 (ip), vehicle: saline with Tween-80) is reported as 100 % of control, the T/C [7] is reported as 105 % of control and the T/C [2] is reported as 95 % of control. The T/C [3] was 87 % of control.
`[N-]=[N+]=NC1CC(n2ccc(=O)[nH]c2=O)OC1COC(c1ccccc1)(c1ccccc1)c1ccccc1` (stereo not drawn) was tested, and the T/C (endpoint: median survival time, dose: 12.5 mg/kg/injection, schedule: Q01DX005 (ip), vehicle: saline with Tween-80) was 96 % of control, the T/C (endpoint: median survival time, dose: 25.0 mg/kg/injection, schedule: Q01DX005 (ip), vehicle: saline with Tween-80) was 101 % of control and the T/C (endpoint: median survival time, dose: 50.0 mg/kg/injection, schedule: Q01DX005 (ip), vehicle: saline with Tween-80) was 94 % of control. The T/C (endpoint: median survival time, dose: 100.0 mg/kg/injection, schedule: Q01DX005 (ip), vehicle: saline with Tween-80) was 95 % of control and the T/C (endpoint: median survival time, dose: 200.0 mg/kg/injection, schedule: Q01DX005 (ip), vehicle: saline with Tween-80) was 91 % of control.
For `CCOC1CC2c3ccccc3C1c1cccc[n+]12` (stereo not drawn), the T/C [1] was 104 % of control.
For `CNC(=O)Cc1ccc2cc(OC)c(OC)cc2c1`, the T/C [7] was 100 % of control and the T/C [8] was 102 % of control.
For `COc1ccc2c(c1)C1(C)C/C(=C\c3ccoc3)C(=O)C(C)C1CC2` (stereo not drawn), the T/C [10] was 94 % of control, the T/C [5] was 94 % of control and the T/C [6] was 102 % of control.
For `N=Cc1c(O)n(-c2ccccc2)c(=O)[nH]c1=O`, the T/C [7] was 101 % of control, the T/C [2] was 94 % of control and the T/C [8] was 101 % of control. The T/C [3] was 92 % of control, the T/C [9] was 104 % of control and the T/C [4] was 97 % of control.
